In patent US5041567A, “Antibacterial monic acid derivatives” (Beecham Group plc, priority 1982, dated 1991):
≈ marks a conversion by molar mass, not a printed value.

Experiments:
[1] = tested on: M. hyosynoviae ATCC 25591; assay: MIC against mycoplasma in vitro; assay type: cell-based; details: 144 h
[2] = tested on: Bord. bronchiseptica B08; assay: MIC against veterinary bacteria in vitro; details: Bordetella bronchiseptica, B08, 18 h
Procedure: (§1) The activity of the compounds of the Examples against various veterinarily important bacteria, was assayed in vitro using two-fold serial dilutions in Diagnostic Sensitivity Test Agar inoculated with 10^4 organisms.

[3] = tested on: Staph. aureus B4 (pen. resistant); assay: MIC against veterinary bacteria in vitro; details: Staphylococcus aureus, 18 h
Procedure: as §1

[4] = tested on: M. suipneumoniae UCD 1; assay: MIC against mycoplasma in vitro; assay type: cell-based; details: Mesomycoplasma hyopneumoniae, UCD1, 144 h
[5] = tested on: M. suipneumoniae NCTC 10110; assay: MIC against mycoplasma in vitro; assay type: cell-based; details: Mesomycoplasma hyopneumoniae, NCTC10110, 144 h; M. suipneumoniae NCTC 10110; 6 days, 37° C.; read-out: MIC
[6] = tested on: M. hyorhinis ATCC 23234; assay: MIC against mycoplasma in vitro; assay type: cell-based; details: Mesomycoplasma hyorhinis, ATCC23234, 144 h; M. hyorhinis ATCC 23234; 6 days, 37° C.; read-out: MIC
[7] = tested on: Strep. agalactiae SPA1; assay: MIC against veterinary bacteria in vitro; details: Streptococcus agalactiae, SPA1, 18 h
Procedure: as §1

[8] = tested on: S. dublin S7; assay: MIC against veterinary bacteria in vitro; details: Salmonella enterica, S7, 18 h
Procedure: as §1

[9] = tested on: M. suipneumoniae JF 435; assay: MIC against mycoplasma in vitro; assay type: cell-based; details: Mesomycoplasma hyopneumoniae, JF435, 144 h
[10] = tested on: Past. multocida PA2; assay: MIC against veterinary bacteria in vitro; details: Pasteurella multocida, PA2, 18 h
Procedure: as §1

[11] = tested on: M. hyorhinis ATCC 25021; assay: MIC against mycoplasma in vitro; assay type: cell-based; details: Mesomycoplasma hyorhinis, ATCC25021, 144 h; M. hyorhinis ATCC 25021; 6 days, 37° C.; read-out: MIC
[12] = tested on: Erysipelothrix rhusiopathiae NCTC 8163; assay: MIC against veterinary bacteria in vitro; details: Erysipelothrix rhusiopathiae, NCTC8163, 18 h
Procedure: as §1

[13] = tested on: M. bovigenitalium ATCC 14173; assay: MIC against mycoplasma in vitro; assay type: cell-based; details: 144 h
[14] = tested on: Strep. suis (group D) SPS11; assay: MIC against veterinary bacteria in vitro; details: Streptococcus suis, 18 h
Procedure: as §1

[15] = tested on: M. suipneumoniae ATCC 25095; assay: MIC against mycoplasma in vitro; assay type: cell-based; details: Mesomycoplasma hyopneumoniae, ATCC25095, 144 h
[16] = tested on: Bord. bronchiseptica B09; assay: MIC against veterinary bacteria in vitro; details: Bordetella bronchiseptica, B09, 18 h
Procedure: as §1

[17] = tested on: Corynebacterium pyogenes CY1; assay: MIC against veterinary bacteria in vitro; details: CY1, 18 h
Procedure: as §1

[18] = tested on: M. suipneumoniae LABER; assay: MIC against mycoplasma in vitro; assay type: cell-based; details: Mesomycoplasma hyopneumoniae, 144 h
[19] = tested on: B. subtilis ATCC 6633; assay: MIC against veterinary bacteria in vitro; details: Bacillus subtilis, ATCC6633, 18 h
Procedure: as §1

[20] = tested on: M. suipneumoniae Str. 11; assay: MIC against mycoplasma in vitro; assay type: cell-based; details: Mesomycoplasma hyopneumoniae, STR.11, 144 h
[21] = tested on: M. dispar NCTC 10125; assay: MIC against mycoplasma in vitro; assay type: cell-based; details: 144 h
[22] = tested on: M. bovis NCTC 10131; assay: microbe, parasite or virus in culture; assay type: cell-based; details: NCTC10131, 144 h
[23] = tested on: Staph. aureus Oxford; assay: MIC against veterinary bacteria in vitro; details: Staphylococcus aureus, 18 h
Procedure: as §1

[24] = tested on: M. suipneumoniae HK(2); assay: MIC against mycoplasma in vitro; assay type: cell-based; details: Mesomycoplasma hyopneumoniae, 144 h; M. suipneumoniae HK(2); 6 days, 37° C.; read-out: MIC
[25] = tested on: Past. multocida PA1; assay: MIC against veterinary bacteria in vitro; details: Pasteurella multocida, PA1, 18 h
Procedure: as §1

[26] = tested on: Staph. aureus 152 (pen. sens); assay: MIC against veterinary bacteria in vitro; details: Staphylococcus aureus, 18 h
Procedure: as §1

[27] = tested on: M. suipneumoniae TAM 6N; assay: MIC against mycoplasma in vitro; assay type: cell-based; details: Mesomycoplasma hyopneumoniae, TAM6N, 144 h; M. suipneumoniae TAM 6N; 6 days, 37° C.; read-out: MIC
[28] = tested on: E. coli E1; assay: MIC against veterinary bacteria in vitro; details: Escherichia coli, E1, 18 h
Procedure: as §1

[29] = tested on: M. gallisepticum S6; assay: MIC against mycoplasma in vitro; assay type: cell-based; details: Mycoplasmoides gallisepticum, S6, 144 h
[30] = tested on: M. pneumoniae ATCC 15492; assay: MIC against mycoplasma in vitro; assay type: cell-based; details: Mycoplasmoides pneumoniae, ATCC15492, 144 h; M. pneumoniae ATCC 15492; 6 days, 37° C.; read-out: MIC
[31] = tested on: Past. haemolytica PA5; assay: MIC against veterinary bacteria in vitro; details: Mannheimia haemolytica, PA5, 18 h
Procedure: as §1

[32] = tested on: Strep. uberis SPU1; assay: MIC against veterinary bacteria in vitro; details: Streptococcus uberis, SPU1, 18 h
Procedure: as §1

[33] = tested on: S. typhimurium S18; assay: MIC against veterinary bacteria in vitro; details: Salmonella enterica, TYPHIMURIUM, 18 h
Procedure: as §1

[34] = tested on: M. suipneumoniae J2206/183^b; assay: MIC against mycoplasma in vitro; assay type: cell-based; details: Mesomycoplasma hyopneumoniae, 144 h; M. suipneumoniae J2206/183^b; 6 days, 37° C.; read-out: MIC
[35] = tested on: M. suipneumoniae MS 16; assay: MIC against mycoplasma in vitro; assay type: cell-based; details: Mesomycoplasma hyopneumoniae, MS16, 144 h
[36] = tested on: Strep. dysgalactiae SPD1; assay: MIC against veterinary bacteria in vitro; details: Streptococcus dysgalactiae, SPD1, 18 h
Procedure: as §1

[37] = tested on: E. coli NCTC 10418; assay: MIC against veterinary bacteria in vitro; details: Escherichia coli, NCTC10418, 18 h
Procedure: as §1

C/C(=C\c1ncc(-c2ccc(Br)s2)o1)C[C@@H]1OC[C@H](C[C@@H]2O[C@H]2[C@@H](C)[C@H](C)O)[C@@H](O)[C@H]1O [Example 28, 5-[2-(5-Bromo)-thienyl]-2-(1-normon-2-yl)oxazole A]
MIC [1]: 1 µg/mL (≈ 1.89 µM)
MIC [2]: 80 µg/mL (≈ 151 µM)
MIC [3]: 0.156 µg/mL (≈ 0.295 µM)
MIC [4]: 0.25 µg/mL (≈ 0.473 µM)
MIC [5]: 0.5 µg/mL (≈ 0.946 µM)
MIC [6]: 0.5 µg/mL (≈ 0.946 µM)
MIC [7]: 1.25 µg/mL (≈ 2.37 µM)
MIC [8]: > 80 µg/mL
MIC [9]: 1 µg/mL (≈ 1.89 µM)
MIC [10]: 2.5 µg/mL (≈ 4.73 µM)
MIC [11]: 0.5 µg/mL (≈ 0.946 µM)
MIC [12]: 40 µg/mL (≈ 75.7 µM)
MIC [13]: 0.1 µg/mL (≈ 0.189 µM)
MIC [14]: 10 µg/mL (≈ 18.9 µM)
MIC [15]: 0.25 µg/mL (≈ 0.473 µM)
MIC [16]: 20 µg/mL (≈ 37.8 µM)
MIC [17]: > 80 µg/mL
MIC [18]: 0.25 µg/mL (≈ 0.473 µM)
MIC [19]: 0.07 µg/mL (≈ 0.132 µM)
MIC [20]: 0.25 µg/mL (≈ 0.473 µM)
MIC [21]: 0.1 µg/mL (≈ 0.189 µM)
MIC [22]: 0.05 µg/mL (≈ 0.0946 µM)
MIC [23]: 0.625 µg/mL (≈ 1.18 µM)
MIC [24]: 0.5 µg/mL (≈ 0.946 µM)
MIC [25]: 20 µg/mL (≈ 37.8 µM)
MIC [26]: 0.312 µg/mL (≈ 0.59 µM)
MIC [27]: 0.5 µg/mL (≈ 0.946 µM)
MIC [28]: > 80 µg/mL
MIC [29]: 2.5 µg/mL (≈ 4.73 µM)
MIC [30]: 5 µg/mL (≈ 9.46 µM)
MIC [31]: 80 µg/mL (≈ 151 µM)
MIC [32]: < 0.039 µg/mL
MIC [33]: > 80 µg/mL
MIC [34]: 0.5 µg/mL (≈ 0.946 µM)
MIC [35]: 0.25 µg/mL (≈ 0.473 µM)
MIC [36]: 0.312 µg/mL (≈ 0.59 µM)
MIC [37]: > 80 µg/mL
